Measurements reported in ChEMBL document CHEMBL1201862, “PubChem BioAssay data set” (2004).
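Test compounds were applied to cells in 96-well plates for 48 hours at 5 doses. GI50 is the concentration that inhibits growth by half.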 The source made the active and inactive calls. No stated cut-off is given here; in the data, active = GI50 up to about 1.1 µM and inactive = higher.

Columns and labels:
Test in all cases: NCI anticancer screen, dose series, 48 h
[1] = system: A498
[2] = system: A549
[3] = system: BT-549
[4] = system: DU-145
[5] = system: HOP-62
[6] = system: IGROV-1
[7] = system: LOX IMVI
[8] = system: M14
[9] = system: MCF7
[10] = system: MDA-MB-231
[11] = system: NCI-H522
[12] = system: OVCAR-5
[13] = system: PC-3
[14] = system: RXF 393
[15] = system: SK-OV-3
[16] = system: SNB-75
[17] = system: T47D
[18] = system: TK-10
[19] = system: U-251
[20] = system: UACC-62

Nc1nc(O)c2[nH]nnc2n1 [8-AZAGUANINE]
GI50 [1]: 11600 nM (inactive)
GI50 [2]: 33000 nM (inactive)
GI50 [3]: 473 nM (active)
GI50 [4]: 684 nM (active)
GI50 [5]: 326 nM (active)
GI50 [6]: 63800 nM (inactive)
GI50 [7]: 223 nM (active)
GI50 [8]: 292 nM (active)
GI50 [9]: 40800 nM (inactive)
GI50 [10]: 5820 nM (inactive)
GI50 [11]: 13900 nM (inactive)
GI50 [12]: 21900 nM (inactive)
GI50 [13]: 855 nM (active)
GI50 [14]: 143 nM (active)
GI50 [15]: 1040 nM (active)
GI50 [16]: 1540 nM (inactive)
GI50 [17]: 3440 nM (inactive)
GI50 [18]: 408 nM (active)
GI50 [19]: 1740 nM (inactive)
GI50 [20]: 372 nM (active)

O[C@H]1[C@H]2c3cc4c(cc3CN3CCC(=C[C@@H]1O)[C@H]23)OCO4 [LYCORINE]
GI50 [1]: 2960 nM (inactive)
GI50 [2]: 1390 nM (inactive)
GI50 [3]: 1660 nM (inactive)
GI50 [4]: 1320 nM (inactive)
GI50 [5]: 1780 nM (inactive)
GI50 [6]: 332 nM (active)
GI50 [7]: 971 nM (active)
GI50 [8]: 1860 nM (inactive)
GI50 [9]: 201 nM (active)
GI50 [10]: 1650 nM (inactive)
GI50 [11]: 1050 nM (active)
GI50 [12]: 2500 nM (inactive)
GI50 [13]: 1450 nM (inactive)
GI50 [14]: 300 nM (active)
GI50 [15]: 1840 nM (inactive)
GI50 [16]: 3130 nM (inactive)
GI50 [17]: 2490 nM (inactive)
GI50 [18]: 2670 nM (inactive)
GI50 [19]: 1990 nM (inactive)
GI50 [20]: 2080 nM (inactive)
